Data taken from patent US9682995B2, “Amino-substituted isothiazoles” (BAYER PHARMA AKTIENGESELLSCHAFT, priority 2013, dated 2017).

Key:
Assay in all cases: Kinase Profiling (KINOMEscan)
Format in all cases: binding
[1] = biological target: 456 kinases (of these 395 non-mutant kinases) (Homo sapiens, UniProt Q16832); details: DDR2; 10 μM
[2] = biological target: 456 kinases (of these 395 non-mutant kinases) (Homo sapiens, UniProt P37023); details: ACVRL1; 10 μM
[3] = biological target: 456 kinases (of these 395 non-mutant kinases) (Homo sapiens, UniProt Q14012); details: CAMK1; 10 μM
[4] = biological target: 456 kinases (of these 395 non-mutant kinases) (Homo sapiens, UniProt O00506); details: YSK1; 10 μM
[5] = biological target: 456 kinases (of these 395 non-mutant kinases) (Homo sapiens, UniProt P31749); details: AKT1; 10 μM
[6] = biological target: 456 kinases (of these 395 non-mutant kinases) (Homo sapiens, UniProt Q9BUB5); details: MKNK1; 10 μM
[7] = biological target: 456 kinases (of these 395 non-mutant kinases) (Homo sapiens, UniProt Q8NEV4); details: MYO3A; 10 μM
[8] = biological target: 456 kinases (of these 395 non-mutant kinases) (Homo sapiens, UniProt P11309); details: PIM1; 10 μM
[9] = biological target: 456 kinases (of these 395 non-mutant kinases) (Homo sapiens, UniProt Q99683); details: ASK1; 10 μM
[10] = biological target: 456 kinases (of these 395 non-mutant kinases) (Homo sapiens, UniProt Q99640); details: PKMYT1; 10 μM
[11] = biological target: 456 kinases (of these 395 non-mutant kinases) (Homo sapiens, UniProt P15056); details: BRAF; 10 μM
[12] = biological target: 456 kinases (of these 395 non-mutant kinases) (Homo sapiens, UniProt O75914); details: PAK3; 10 μM
[13] = biological target: 456 kinases (of these 395 non-mutant kinases) (Homo sapiens, UniProt Q86V86); details: PIM3; 10 μM
[14] = biological target: 456 kinases (of these 395 non-mutant kinases) (Homo sapiens, UniProt Q05655); details: PRKCD; 10 μM
[15] = biological target: 456 kinases (of these 395 non-mutant kinases) (Homo sapiens, UniProt Q9UKI8); details: TLK1; 10 μM
[16] = biological target: 456 kinases (of these 395 non-mutant kinases) (Homo sapiens, UniProt P41240); details: CSK; 10 μM
[17] = biological target: 456 kinases (of these 395 non-mutant kinases) (Homo sapiens, UniProt Q04771); details: ACVR1; 10 μM
[18] = biological target: 456 kinases (of these 395 non-mutant kinases) (Homo sapiens, UniProt P09769); details: FGR; 10 μM
[19] = biological target: 456 kinases (of these 395 non-mutant kinases) (Homo sapiens, UniProt O00141); details: SGK; 10 μM
[20] = biological target: 456 kinases (of these 395 non-mutant kinases) (Homo sapiens, UniProt Q15303); details: ERBB4; 10 μM
[21] = biological target: 456 kinases (of these 395 non-mutant kinases) (Homo sapiens, UniProt P00533, G719C); details: EGFR(G719C); 10 μM
[22] = biological target: 456 kinases (of these 395 non-mutant kinases) (Homo sapiens, UniProt O94804); details: LOK; 10 μM
[23] = biological target: 456 kinases (of these 395 non-mutant kinases) (Homo sapiens, UniProt Q14289); details: PYK2; 10 μM
[24] = biological target: 456 kinases (of these 395 non-mutant kinases) (Homo sapiens, UniProt Q15418); details: 10 μM
[25] = biological target: 456 kinases (of these 395 non-mutant kinases) (Homo sapiens, UniProt P00519, T315I); details: 10 μM
[26] = biological target: 456 kinases (of these 395 non-mutant kinases) (Homo sapiens, UniProt Q8TD19); details: NEK9; 10 μM
[27] = biological target: 456 kinases (of these 395 non-mutant kinases) (Homo sapiens, UniProt O43318); details: TAK1; 10 μM
[28] = biological target: 456 kinases (of these 395 non-mutant kinases) (Homo sapiens, UniProt Q9BYT3); details: STK33; 10 μM
[29] = biological target: 456 kinases (of these 395 non-mutant kinases) (Homo sapiens, UniProt O76039); details: CDKL5; 10 μM
[30] = biological target: 456 kinases (of these 395 non-mutant kinases) (Homo sapiens, UniProt P33981); details: TTK; 10 μM
[31] = biological target: 456 kinases (of these 395 non-mutant kinases) (Homo sapiens, UniProt Q9NYY3); details: PLK2; 10 μM
[32] = biological target: 456 kinases (of these 395 non-mutant kinases) (Homo sapiens, UniProt P36888, D835H); details: FLT3(D835H); 10 μM

Sequence of 456 kinases (of these 395 non-mutant kinases) (Homo sapiens, UniProt P41240) (P41240 2-450 limits assumed, change not shown): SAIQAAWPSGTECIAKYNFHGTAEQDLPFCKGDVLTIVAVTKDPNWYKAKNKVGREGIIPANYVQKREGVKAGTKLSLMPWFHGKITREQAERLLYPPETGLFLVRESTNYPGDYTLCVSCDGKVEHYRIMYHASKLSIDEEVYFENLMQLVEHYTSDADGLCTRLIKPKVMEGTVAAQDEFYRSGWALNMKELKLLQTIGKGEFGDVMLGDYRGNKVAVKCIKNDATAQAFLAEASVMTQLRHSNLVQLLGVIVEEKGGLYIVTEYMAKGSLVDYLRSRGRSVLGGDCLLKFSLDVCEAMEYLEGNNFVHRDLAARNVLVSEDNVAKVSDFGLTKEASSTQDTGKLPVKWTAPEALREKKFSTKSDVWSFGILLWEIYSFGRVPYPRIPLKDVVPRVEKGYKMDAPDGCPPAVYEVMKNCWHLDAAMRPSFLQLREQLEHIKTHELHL
Sequence of 456 kinases (of these 395 non-mutant kinases) (Homo sapiens, UniProt Q16832) (Q16832 22-855 limits assumed, change not shown): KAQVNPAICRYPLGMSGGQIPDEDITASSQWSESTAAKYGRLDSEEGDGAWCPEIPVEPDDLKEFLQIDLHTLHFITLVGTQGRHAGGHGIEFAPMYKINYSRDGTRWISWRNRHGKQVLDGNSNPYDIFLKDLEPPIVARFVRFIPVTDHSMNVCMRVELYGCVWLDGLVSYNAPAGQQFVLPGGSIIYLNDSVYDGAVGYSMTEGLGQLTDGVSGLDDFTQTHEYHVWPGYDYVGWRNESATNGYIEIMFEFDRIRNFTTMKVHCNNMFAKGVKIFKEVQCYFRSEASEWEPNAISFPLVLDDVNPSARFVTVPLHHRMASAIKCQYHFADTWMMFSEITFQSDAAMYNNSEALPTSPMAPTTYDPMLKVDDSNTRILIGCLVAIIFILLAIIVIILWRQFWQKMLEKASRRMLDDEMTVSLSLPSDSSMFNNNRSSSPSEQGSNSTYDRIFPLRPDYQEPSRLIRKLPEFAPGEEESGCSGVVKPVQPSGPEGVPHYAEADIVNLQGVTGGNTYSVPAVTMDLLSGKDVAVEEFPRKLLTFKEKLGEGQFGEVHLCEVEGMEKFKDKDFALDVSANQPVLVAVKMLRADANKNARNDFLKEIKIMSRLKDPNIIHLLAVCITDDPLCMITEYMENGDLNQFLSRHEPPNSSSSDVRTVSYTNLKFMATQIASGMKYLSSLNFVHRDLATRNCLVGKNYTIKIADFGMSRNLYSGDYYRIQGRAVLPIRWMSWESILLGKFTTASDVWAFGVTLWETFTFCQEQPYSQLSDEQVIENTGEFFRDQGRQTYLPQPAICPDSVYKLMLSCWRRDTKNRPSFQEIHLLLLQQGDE
Sequence of 456 kinases (of these 395 non-mutant kinases) (Homo sapiens, UniProt P09769) (P09769 2-529 limits assumed, change not shown): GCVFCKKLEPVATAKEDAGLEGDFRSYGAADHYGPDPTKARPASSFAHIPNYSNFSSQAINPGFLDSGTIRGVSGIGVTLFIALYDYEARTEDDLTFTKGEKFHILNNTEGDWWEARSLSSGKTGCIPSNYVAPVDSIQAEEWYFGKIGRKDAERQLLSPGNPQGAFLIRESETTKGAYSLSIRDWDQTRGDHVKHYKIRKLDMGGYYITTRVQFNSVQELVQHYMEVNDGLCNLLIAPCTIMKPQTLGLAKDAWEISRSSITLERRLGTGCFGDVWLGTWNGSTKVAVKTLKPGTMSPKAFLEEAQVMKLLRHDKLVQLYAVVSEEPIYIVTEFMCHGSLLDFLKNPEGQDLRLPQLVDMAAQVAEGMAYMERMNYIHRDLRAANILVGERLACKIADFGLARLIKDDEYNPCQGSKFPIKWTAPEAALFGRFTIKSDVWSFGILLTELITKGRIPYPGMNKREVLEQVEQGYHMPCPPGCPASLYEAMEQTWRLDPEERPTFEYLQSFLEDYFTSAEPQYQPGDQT
Sequence of 456 kinases (of these 395 non-mutant kinases) (Homo sapiens, UniProt Q04771) (Q04771 21-509 limits assumed, change not shown): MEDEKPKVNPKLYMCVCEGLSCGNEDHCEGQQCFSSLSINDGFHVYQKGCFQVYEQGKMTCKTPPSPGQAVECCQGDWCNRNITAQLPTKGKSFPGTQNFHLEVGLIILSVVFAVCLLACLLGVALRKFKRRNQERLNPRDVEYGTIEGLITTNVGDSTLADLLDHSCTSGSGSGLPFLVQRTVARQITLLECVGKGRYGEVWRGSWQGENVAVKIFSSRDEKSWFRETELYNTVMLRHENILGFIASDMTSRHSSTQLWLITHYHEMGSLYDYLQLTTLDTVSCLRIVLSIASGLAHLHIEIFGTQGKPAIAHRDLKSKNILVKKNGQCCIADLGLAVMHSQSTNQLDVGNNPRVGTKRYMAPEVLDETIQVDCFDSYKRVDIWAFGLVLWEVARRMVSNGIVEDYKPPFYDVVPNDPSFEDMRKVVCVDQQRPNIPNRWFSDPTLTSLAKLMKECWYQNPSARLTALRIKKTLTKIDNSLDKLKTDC
Sequence of 456 kinases (of these 395 non-mutant kinases) (Homo sapiens, UniProt Q15303) (Q15303 26-1308 limits assumed, stated change not applied): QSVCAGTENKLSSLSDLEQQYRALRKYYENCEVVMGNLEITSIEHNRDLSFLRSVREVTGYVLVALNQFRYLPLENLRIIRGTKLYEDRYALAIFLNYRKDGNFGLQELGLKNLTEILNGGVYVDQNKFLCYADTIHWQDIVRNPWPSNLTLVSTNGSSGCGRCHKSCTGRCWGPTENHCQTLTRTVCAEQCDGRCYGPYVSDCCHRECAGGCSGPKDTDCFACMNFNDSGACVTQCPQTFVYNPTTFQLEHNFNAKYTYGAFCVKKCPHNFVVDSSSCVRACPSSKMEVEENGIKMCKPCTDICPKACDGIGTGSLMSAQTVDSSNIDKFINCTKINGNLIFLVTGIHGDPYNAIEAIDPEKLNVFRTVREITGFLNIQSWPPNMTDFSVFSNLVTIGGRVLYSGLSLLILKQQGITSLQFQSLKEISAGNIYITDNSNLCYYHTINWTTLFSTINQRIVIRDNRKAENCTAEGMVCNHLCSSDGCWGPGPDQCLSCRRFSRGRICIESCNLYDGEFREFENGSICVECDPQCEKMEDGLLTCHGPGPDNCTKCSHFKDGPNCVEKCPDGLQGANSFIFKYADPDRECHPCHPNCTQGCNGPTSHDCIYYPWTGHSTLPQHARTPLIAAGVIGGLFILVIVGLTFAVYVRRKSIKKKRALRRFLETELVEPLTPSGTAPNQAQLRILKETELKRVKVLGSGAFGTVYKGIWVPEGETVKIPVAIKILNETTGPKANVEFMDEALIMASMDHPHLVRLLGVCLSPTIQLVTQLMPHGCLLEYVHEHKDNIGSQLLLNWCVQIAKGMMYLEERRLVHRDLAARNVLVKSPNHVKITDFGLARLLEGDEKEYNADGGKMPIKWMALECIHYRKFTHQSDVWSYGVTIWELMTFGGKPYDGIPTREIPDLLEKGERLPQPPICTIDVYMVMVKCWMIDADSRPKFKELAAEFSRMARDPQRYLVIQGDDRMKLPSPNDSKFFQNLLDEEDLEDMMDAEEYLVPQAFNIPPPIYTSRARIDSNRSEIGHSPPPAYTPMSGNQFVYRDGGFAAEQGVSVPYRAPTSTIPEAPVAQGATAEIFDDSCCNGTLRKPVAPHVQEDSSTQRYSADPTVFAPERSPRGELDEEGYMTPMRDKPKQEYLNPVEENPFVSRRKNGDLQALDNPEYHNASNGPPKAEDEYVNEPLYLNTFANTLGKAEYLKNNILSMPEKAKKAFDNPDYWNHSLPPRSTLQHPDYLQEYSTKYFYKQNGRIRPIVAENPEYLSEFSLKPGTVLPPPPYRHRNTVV
Sequence of 456 kinases (of these 395 non-mutant kinases) (Homo sapiens, UniProt Q8TD19) (Q8TD19 2-979 limits assumed, change not shown): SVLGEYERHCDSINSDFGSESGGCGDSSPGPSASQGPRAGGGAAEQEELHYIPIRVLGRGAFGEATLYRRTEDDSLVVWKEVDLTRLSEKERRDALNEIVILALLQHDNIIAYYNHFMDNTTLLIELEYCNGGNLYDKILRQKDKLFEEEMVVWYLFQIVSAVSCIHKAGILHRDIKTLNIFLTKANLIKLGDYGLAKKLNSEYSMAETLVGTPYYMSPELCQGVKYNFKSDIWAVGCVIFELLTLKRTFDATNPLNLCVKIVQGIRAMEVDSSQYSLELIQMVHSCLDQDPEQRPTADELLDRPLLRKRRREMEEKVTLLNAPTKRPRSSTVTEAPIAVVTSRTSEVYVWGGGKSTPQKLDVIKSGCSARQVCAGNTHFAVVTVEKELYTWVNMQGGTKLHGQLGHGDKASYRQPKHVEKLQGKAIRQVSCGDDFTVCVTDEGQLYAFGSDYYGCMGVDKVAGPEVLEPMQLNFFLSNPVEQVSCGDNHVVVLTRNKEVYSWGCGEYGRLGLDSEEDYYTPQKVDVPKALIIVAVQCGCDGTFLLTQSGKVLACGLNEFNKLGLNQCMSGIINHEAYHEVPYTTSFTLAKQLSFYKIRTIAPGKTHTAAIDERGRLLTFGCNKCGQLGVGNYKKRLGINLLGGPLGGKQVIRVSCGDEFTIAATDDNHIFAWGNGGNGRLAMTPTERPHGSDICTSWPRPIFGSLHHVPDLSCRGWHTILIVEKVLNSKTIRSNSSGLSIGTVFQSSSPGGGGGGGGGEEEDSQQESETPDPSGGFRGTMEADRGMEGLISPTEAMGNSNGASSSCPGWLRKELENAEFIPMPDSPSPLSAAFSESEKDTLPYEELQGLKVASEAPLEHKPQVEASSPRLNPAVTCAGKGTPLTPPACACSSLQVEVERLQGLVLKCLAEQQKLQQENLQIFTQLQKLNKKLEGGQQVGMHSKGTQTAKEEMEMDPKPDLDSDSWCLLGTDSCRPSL
Sequence of 456 kinases (of these 395 non-mutant kinases) (Homo sapiens, UniProt P37023) (P37023 22-503 limits assumed, change not shown): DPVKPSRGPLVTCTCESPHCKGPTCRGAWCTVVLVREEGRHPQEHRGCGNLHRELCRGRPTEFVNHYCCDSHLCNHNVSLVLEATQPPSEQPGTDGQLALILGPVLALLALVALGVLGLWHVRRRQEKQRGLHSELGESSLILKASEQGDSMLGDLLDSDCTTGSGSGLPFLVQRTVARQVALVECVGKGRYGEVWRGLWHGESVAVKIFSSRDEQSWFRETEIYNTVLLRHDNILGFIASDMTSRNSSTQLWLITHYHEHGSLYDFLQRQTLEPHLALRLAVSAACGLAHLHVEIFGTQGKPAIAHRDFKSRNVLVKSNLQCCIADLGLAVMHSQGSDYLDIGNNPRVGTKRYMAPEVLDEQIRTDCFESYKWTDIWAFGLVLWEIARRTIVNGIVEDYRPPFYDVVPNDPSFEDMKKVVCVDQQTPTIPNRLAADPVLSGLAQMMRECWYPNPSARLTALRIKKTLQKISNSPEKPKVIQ

`CCc1ccccc1NC(=O)c1c(C)nsc1Nc1cnc2cc(F)ccc2n1` [Example 20, N-(2-Ethylphenyl)-5-[(6-fluoroquinoxalin-2-yl)amino]-3-methyl-1,2-thiazole-4-carboxamide] was tested, and the “% Ctrl @ 10 μM” value [1] was 100 % Ctrl, the “% Ctrl @ 10 μM” value [2] was 100 % Ctrl and the “% Ctrl @ 10 μM” value [3] was 68 % Ctrl. For the same molecule, the “% Ctrl @ 10 μM” value [4] was 100 % Ctrl, the “% Ctrl @ 10 μM” value [5] was 100 % Ctrl and the “% Ctrl @ 10 μM” value [6] was 100 % Ctrl. For the same molecule, the “% Ctrl @ 10 μM” value [7] was 86 % Ctrl, the “% Ctrl @ 10 μM” value [8] was 100 % Ctrl and the “% Ctrl @ 10 μM” value [9] was 90 % Ctrl. For the same molecule, the “% Ctrl @ 10 μM” value [10] was 100 % Ctrl, the “% Ctrl @ 10 μM” value [11] was 82 % Ctrl and the “% Ctrl @ 10 μM” value [12] was 100 % Ctrl. For the same molecule, the “% Ctrl @ 10 μM” value [13] was 100 % Ctrl, the “% Ctrl @ 10 μM” value [14] was 85 % Ctrl and the “% Ctrl @ 10 μM” value [15] was 84 % Ctrl. For the same molecule, the “% Ctrl @ 10 μM” value [16] was 100 % Ctrl, the “% Ctrl @ 10 μM” value [17] was 77 % Ctrl and the “% Ctrl @ 10 μM” value [18] was 80 % Ctrl. For the same molecule, the “% Ctrl @ 10 μM” value [19] was 100 % Ctrl, the “% Ctrl @ 10 μM” value [20] was 100 % Ctrl and the “% Ctrl @ 10 μM” value [21] was 95 % Ctrl. The “% Ctrl @ 10 μM” value [22] was 100 % Ctrl, the “% Ctrl @ 10 μM” value [23] was 100 % Ctrl and the “% Ctrl @ 10 μM” value ([24]; RSK1(Kin.Dom.1-N-terminal)) was 95 % Ctrl. For the same molecule, the “% Ctrl @ 10 μM” value ([24]; RSK1(Kin.Dom.2-C-terminal)) was 86 % Ctrl, the “% Ctrl @ 10 μM” value ([25]; ABL1(T315I)-nonphosphorylated) was 100 % Ctrl and the “% Ctrl @ 10 μM” value ([25]; ABL1(T315I)-phosphorylated) was 87 % Ctrl. For the same molecule, the “% Ctrl @ 10 μM” value [26] was 78 % Ctrl, the “% Ctrl @ 10 μM” value [27] was 100 % Ctrl and the “% Ctrl @ 10 μM” value [28] was 100 % Ctrl. The “% Ctrl @ 10 μM” value [29] was 100 % Ctrl, the “% Ctrl @ 10 μM” value [30] was 72 % Ctrl and the “% Ctrl @ 10 μM” value [31] was 90 % Ctrl. The “% Ctrl @ 10 μM” value [32] was 83 % Ctrl.
